In patent publication US10835500B2, “Medicament for accelerated wound healing” (Symrise AG, priority 2014, dated 2020):

Target: T1, recombinantly expressed OR2AT4 (Homo sapiens, UniProt A6NND4)
T1 construct: expressed in transfected cells; host or cells: Hana3A cells, transient transfection with pcDNA3-OR2AT4 by the calcium phosphate method
T1 sequence (A6NND4 1-320): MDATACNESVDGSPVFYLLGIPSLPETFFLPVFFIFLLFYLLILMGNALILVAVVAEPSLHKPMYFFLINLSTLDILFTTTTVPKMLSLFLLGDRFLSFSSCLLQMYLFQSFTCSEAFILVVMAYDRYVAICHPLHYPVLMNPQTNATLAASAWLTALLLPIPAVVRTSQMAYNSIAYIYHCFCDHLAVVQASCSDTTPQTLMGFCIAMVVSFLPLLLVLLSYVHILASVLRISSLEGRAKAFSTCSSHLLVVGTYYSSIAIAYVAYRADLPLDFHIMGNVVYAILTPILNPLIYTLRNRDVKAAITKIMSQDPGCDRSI
Assay: Calcium imaging of transiently OR2AT4-transfected Hana3A cells
Type: cell-based
Details: for agonist or antagonist to heterologously expressed OR2AT4: summary of calcium imaging and luciferase results; for response rate of the Hana3A cells relative to the Ringer control: 1 mM odorant, 20 s stimulation, OR2AT4-transfected Hana3A cells
Procedure: Hana3A cells expressing stable endogenous olfactory transduction factors, which specifically target the incorporation of ORs into the cell membrane and thus improve activation capacity, were used as a heterologous expression system. Moreover, the 20 first N-terminal amino acids of rhodopsins (Rho-tag) were added before the N-terminus of the coding sequence of the OR, also in order to support heterologous expression.
A method established at the Department of Cell Physiology of Ruhr University Bochum for deorphanization studies is calcium imaging, in which activation of an OR by an odorant is visualized by a change in the intracellular calcium concentration of transfected cells using a fluorescent dye [cf. Wetzel et al. in: J. Neurosci. 19, pp. 7426-7433 (1999); Spehr et al. in: Science 299, pp. 2054-2058 (2003); Neuhaus et al. in: J. Biol. Chem. 284, pp. 16218-16225 (2009)]. In this method, the Hana3A cells are briefly (20 s) stimulated with an odorant and selected for odorant screenings of high concentrations (up to 1 mM) in order to confirm activation of ORs weakly expressed in Hana3A cells.
The activation of OR2AT4 by Sandalore® was first investigated by the calcium imaging method.
Odorants can not only activate a receptor, but can also act as antagonists to an OR.
Determination of receptive field of recombinantly expressed OR2AT4. […] As a control, untransfected Hana3A cells were simulated with Sandalore®. 100 μM of ATP was used at the end of each measurement as a positive control stimulus. […] The mean response rate including standard error of the cells is shown relative to the Ringer control. […] Isobornyl.: isobornyl cyclohexanol; S. öl: sandalwood oil. Kruskal-Wallis test with multiple comparison. *: p<0.05. […] Significance was determined between Hana3A cells transfected with OR2AT4-pcDNA3 and pcDNA3 without an insert. The dots show mean normalized luciferase-activity including standard error. Mann-Whitney U test; n=3 experiments. *: p<0.05; **: p<0.01; ***: p<0.001.
Antagonists of recombinantly expressed OR2AT4. […] 100 μM of ATP was used at the end of each measurement as a positive control stimulus. […] The mean response rate including standard error of the cells is shown relative to the Ringer control. Number of measurements: Ringer (23), Sandalore® (22), Sandalore®+dimetol (11), dimetol (11), Phenirat (14), Sandalore®+Phenirat (22), Oxyphenylon (12), and Sandalore®+Oxyphenylon (20). S: Sandalore®. Kruskal-Wallis test with multiple comparison. *: p<0.05.

| effect on Sandalore-induced calcium signals in coapplication (coapplication with Sandalore 1:1, 1 mM respectively) | effect of the odorant alone on the Hana3A cells (odorant alone, 1 mM) | agonist or antagonist to heterologously expressed OR2AT4 | agonist or antagonist to heterologously expressed OR2AT4 (listed as Brahmanol) | SMILES | response rate of the Hana3A cells relative to the Ringer control | agonist or antagonist to heterologously expressed OR2AT4 (listed as Sandalore) |
| --- | --- | --- | --- | --- | --- | --- |
| significantly reduced | no effect | antagonists | – | CC(=O)CCc1ccc(O)cc1 [Oxyphenylon] | – | – |
| – | – | agonists | only agonists | CC1=CCC(CCC(C)CO)C1(C)C (stereo not drawn) [Brahmanol®] | increased response rate in calcium imaging experiments, although the increase was not significant | – |

| SMILES | effect on Sandalore-induced calcium signals in coapplication (coapplication with Sandalore 1:1, 1 mM respectively) | effect of the odorant alone on the Hana3A cells (odorant alone, 1 mM) | agonist or antagonist to heterologously expressed OR2AT4 | agonist or antagonist to heterologously expressed OR2AT4 (listed as Brahmanol) | response rate of the Hana3A cells relative to the Ringer control | agonist or antagonist to heterologously expressed OR2AT4 (listed as Sandalore) |
| --- | --- | --- | --- | --- | --- | --- |
| CC1=CCC(CCC(C)C(C)O)C1(C)C (stereo not drawn) [Sandalore®] | – | – | agonists | – | significantly increased response rate | only agonists |
